Activity calls are given as the source filed them.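 The calls were made as follows: active = a concentration-response curve whose fit quality R2 exceeds 0.5; inactive = the rest.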
Molecular target: Muscarinic acetylcholine receptor M5 (Homo sapiens) (UniProt P08912)
Assay: potentiation of ACh calcium response at M5 – cell-based, CHO-K1 M5, Fluo-4 calcium, ACh EC20, selectivity assay for M1 muscarinic PAM project, dose response (AID 2433)
Conditions: CHO-K1 M5 cells; for % of max ACh response: at 30 µM (top of the series)

Muscarinic acetylcholine receptor M5 (Homo sapiens), sequence (P08912 whole entry, looked up): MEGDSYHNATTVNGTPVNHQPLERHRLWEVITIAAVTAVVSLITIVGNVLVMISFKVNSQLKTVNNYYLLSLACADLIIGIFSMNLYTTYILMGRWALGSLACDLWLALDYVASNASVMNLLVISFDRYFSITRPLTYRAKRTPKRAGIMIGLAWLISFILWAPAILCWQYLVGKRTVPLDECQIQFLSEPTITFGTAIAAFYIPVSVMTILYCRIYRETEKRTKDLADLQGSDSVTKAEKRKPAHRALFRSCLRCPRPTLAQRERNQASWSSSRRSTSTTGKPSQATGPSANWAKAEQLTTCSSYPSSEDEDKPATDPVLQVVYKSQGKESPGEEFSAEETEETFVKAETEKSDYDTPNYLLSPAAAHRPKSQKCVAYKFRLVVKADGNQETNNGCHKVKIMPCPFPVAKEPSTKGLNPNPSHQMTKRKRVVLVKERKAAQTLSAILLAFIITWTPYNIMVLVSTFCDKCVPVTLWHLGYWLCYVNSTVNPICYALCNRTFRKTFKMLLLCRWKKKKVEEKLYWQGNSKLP

With `Cn1cc(-c2ccc(CN3C(=O)C(=O)c4ccccc43)c(F)c2)cn1` the “% of max ACh response” value was “inactive”.
In the case of `Cn1cc(-c2cc(F)c(CN3C(=O)C(=O)c4ccccc43)c(F)c2)cn1`, the “% of max ACh response” value is reported as “inactive”.
For `Cn1cc(-c2ccc(CN3C(=O)C(=O)c4ccccc43)cc2)cn1`, the EC50 was “inactive”.

Reference: PubChem BioAssay AID2433 (Vanderbilt High Throughput Screening Facility, 2010)
